# Data reported in US20260200897A1, “4-((5-(3-(4-(PYRIDIN-2-YL)CYCLOPENTYL)-1H-PYRAZOL-3-YL)AMINO)-BENZENESULFONAMIDE DERIVATIVES AND SIMILAR COMPOUNDS AS CDK INHIBITORS FOR THE TREATMENT OF CANCER” (BeOne Medicines I GmbH, priority 2023, published 2026).
# Assays:
# CDK2/Cyclin E1 = CDK2/Cyclin E1 (Homo sapiens, UniProt P24941); test: CDK2/Cyclin E1 TR-FRET biochemical assay, 0.060 mM ATP; conditions: 0.15 μM Rb (Ser780)-biotin substrate, 120 min reaction, Table 1
# Experimental: (§1) Compounds disclosed herein were tested for inhibition of CDK2/Cyclin E1 or CDK1/Cyclin B1 kinase in an assay based on the time-resolved fluorescence-resonance energy transfer (TR-FRET) methodology. The assay was carried out in 384-well low volume black plates in a reaction mixture containing CDK2/Cyclin E1 or CDK1/Cyclin B1, 0.060 mM ATP for CDK2/Cyclin E1 or 0.015 mM ATP for CDK1/Cyclin B1, 0.15 μM Rb (Ser780)-biotin substrate and 0-10 μM compound in buffer containing 50 mM HEPES pH7.0, 0.02% NaN3, 0.01% BSA, 0.1 mM Orthovanadate, 50 mM MgCl2, 1 mM DTT and 0.005% Tween-20. The kinase was incubated with compound for 60 minutes at room temperature and the reaction was initiated by the addition of ATP and Rb (Ser780)-biotin substrate. After reaction at room temperature for 120 minutes, an equal volume of stop/detection solution was added according to the manufacture's instruction (Cisbio Bioassays). The stop/detection solution contained Streptavidin-XL665 and Anti-pRb (Ser780) mAb-Eu Cryptate in Detection buffer (Cisbio Bioassays). Plates were incubated at room temperature for 60 minutes, and the TR-FRET signals (ex337 nm, em665 nm/620 nm) were recorded on a PHERAstar FSX plate reader (BMG Labtech). The inhibition percentage of CDK2/Cyclin E1 or CDK1/Cyclin B1 kinase activity in presence of increasing concentrations of compounds was calculated based on the ratio of fluorescence at 665 nm to that at 620 nm. The IC50 for each compound was derived from fitting the data to the four-parameter logistic equation by Dotmatics.
# CDK1/Cyclin B1 = CDK1/Cyclin B1 (Homo sapiens, UniProt P06493); test: CDK1/Cyclin B1 TR-FRET biochemical assay, 0.015 mM ATP; conditions: 0.15 μM Rb (Ser780)-biotin substrate, 120 min reaction, Table 1
# Sequence of CDK1/Cyclin B1 (P06493 whole entry): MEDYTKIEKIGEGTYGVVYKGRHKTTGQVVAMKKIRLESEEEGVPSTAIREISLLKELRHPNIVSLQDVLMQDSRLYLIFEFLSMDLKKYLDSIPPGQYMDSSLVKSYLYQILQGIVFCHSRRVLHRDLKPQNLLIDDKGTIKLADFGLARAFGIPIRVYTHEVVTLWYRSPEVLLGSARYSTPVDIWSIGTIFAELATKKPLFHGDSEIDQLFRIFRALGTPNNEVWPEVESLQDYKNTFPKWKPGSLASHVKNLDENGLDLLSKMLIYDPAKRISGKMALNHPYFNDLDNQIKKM
# Sequence of CDK1/Cyclin B1 (P14635 whole entry partner): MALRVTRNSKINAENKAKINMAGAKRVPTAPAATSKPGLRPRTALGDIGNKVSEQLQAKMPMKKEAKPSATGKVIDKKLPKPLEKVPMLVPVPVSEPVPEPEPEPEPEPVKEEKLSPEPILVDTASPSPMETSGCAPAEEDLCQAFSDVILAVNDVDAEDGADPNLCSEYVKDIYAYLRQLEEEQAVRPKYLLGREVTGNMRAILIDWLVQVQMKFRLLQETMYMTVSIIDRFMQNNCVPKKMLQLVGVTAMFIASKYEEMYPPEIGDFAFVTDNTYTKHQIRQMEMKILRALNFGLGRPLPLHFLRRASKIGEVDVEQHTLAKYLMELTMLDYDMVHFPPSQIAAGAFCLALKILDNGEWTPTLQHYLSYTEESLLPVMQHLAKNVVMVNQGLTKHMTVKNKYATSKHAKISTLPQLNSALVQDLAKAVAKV
# Experimental: as §1
SMILES,IC50 (CDK2/Cyclin E1) [nM],IC50 (CDK1/Cyclin B1) [nM]
"Cc1ccnnc1O[C@@H]1CC[C@H](c2cc(Nc3ccc4c(c3F)CNS4(=O)=O)n[nH]2)C1 (relative stereo) [Example 24, cis-4-fluoro-5-((5-(3-((4-methylpyridazin-3-yl)oxy)cyclopentyl)-1H-pyrazol-3-yl)amino)-2,3-dihydrobenzo[d]isothiazole 1,1-dioxide]",5.7,49
"CCc1ccnnc1O[C@@H]1CC[C@H](c2cc(Nc3ccc4c(c3F)CNS4(=O)=O)n[nH]2)C1 (relative stereo) [Example 25, cis-5-((5-(3-((4-ethylpyridazin-3-yl)oxy)cyclopentyl)-1H-pyrazol-3-yl)amino)-4-fluoro-2,3-dihydrobenzo[d]isothiazole 1,1-dioxide]",1.4,11
"CC(C)c1ccnn([C@H]2CC[C@@H](c3cc(Nc4ccc5c(c4F)CNS5(=O)=O)n[nH]3)C2)c1=O (relative stereo) [Example 26, cis-2-(3-(3-((4-fluoro-1,1-dioxido-2,3-dihydrobenzo[d]isothiazol-5-yl)amino)-1H-pyrazol-5-yl)cyclopentyl)-4-isopropylpyridazin-3 (2H)-one]",140,1690
"CC(C)c1ccnnc1O[C@@H]1CC[C@H](c2cc(Nc3ccc4c(c3F)CNS4(=O)=O)n[nH]2)C1 (relative stereo) [Example 27, cis-4-fluoro-5-((5-(3-((4-isopropylpyridazin-3-yl)oxy)cyclopentyl)-1H-pyrazol-3-yl)amino)-2,3-dihydrobenzo[d]isothiazole 1,1-dioxide]",0.7,3.7
"O=S1(=O)NCc2c1ccc(Nc1cc([C@H]3CC[C@@H](Oc4nnccc4-c4ccccc4)C3)[nH]n1)c2F (relative stereo) [Example 31, cis-4-fluoro-5-((5-(3-((4-phenylpyridazin-3-yl)oxy)cyclopentyl)-1H-pyrazol-3-yl)amino)-2,3-dihydrobenzo[d]isothiazole 1,1-dioxide]",8.5,73
"C=C(C)c1cnn([C@H]2CC[C@@H](c3cc(Nc4ccc5c(c4F)CNS5(=O)=O)n[nH]3)C2)c(=O)c1 (relative stereo) [Example 32, cis-2-(3-(3-((4-fluoro-1,1-dioxido-2,3-dihydrobenzo[d]isothiazol-5-yl)amino)-1H-pyrazol-5-yl)cyclopentyl)-5-(prop-1-en-2-yl)pyridazin-3 (2H)-one]",48,3570
"O=c1c2ccncc2cnn1[C@H]1CC[C@@H](c2cc(Nc3ccc4c(c3F)CNS4(=O)=O)n[nH]2)C1 (relative stereo) [Example 34, cis-2-(3-(3-((4-fluoro-1,1-dioxido-2,3-dihydrobenzo[d]isothiazol-5-yl)amino)-1H-pyrazol-5-yl)cyclopentyl)pyrido[3,4-d]pyridazin-1 (2H)-one]",63,1550
"O=S1(=O)NCc2c1ccc(Nc1cc([C@H]3CC[C@@H](Oc4cnccc4C4CC4)C3)[nH]n1)c2F (relative stereo) [Example 41, cis-5-((5-(3-((4-cyclopropylpyridin-3-yl)oxy)cyclopentyl)-1H-pyrazol-3-yl)amino)-4-fluoro-2,3-dihydrobenzo[d]isothiazole 1,1-dioxide]",33,474
"Cc1ccncc1O[C@@H]1CC[C@H](c2cc(Nc3ccc4c(c3F)CNS4(=O)=O)n[nH]2)C1 (relative stereo) [Example 42, cis-4-fluoro-5-((5-(3-((4-methylpyridin-3-yl)oxy)cyclopentyl)-1H-pyrazol-3-yl)amino)-2,3-dihydrobenzo[d]isothiazole 1,1-dioxide]",171,531
"C=C(C)c1ccncc1O[C@@H]1CC[C@H](c2cc(Nc3ccc4c(c3F)CNS4(=O)=O)n[nH]2)C1 (relative stereo) [Example 43, cis-4-fluoro-5-((5-(3-((4-(prop-1-en-2-yl)pyridin-3-yl)oxy)cyclopentyl)-1H-pyrazol-3-yl)amino)-2,3-dihydrobenzo[d]isothiazole 1,1-dioxide]",4.3,58

# The next lines start with the values.
IC50 (CDK2/Cyclin E1) [nM],IC50 (CDK1/Cyclin B1) [nM],SMILES
130,1240,"O=c1c(C2CC2)ccnn1[C@H]1CC[C@@H](c2cc(Nc3ccc4c(c3F)CNS4(=O)=O)n[nH]2)C1 (relative stereo) [Example 28, cis-4-cyclopropyl-2-(3-(3-((4-fluoro-1,1-dioxido-2,3-dihydrobenzo[d]isothiazol-5-yl)amino)-1H-pyrazol-5-yl)cyclopentyl)pyridazin-3 (2H)-one]"
2.9,35,"O=S1(=O)NCc2c1ccc(Nc1cc([C@H]3CC[C@@H](Oc4nnccc4C4CC4)C3)[nH]n1)c2F (relative stereo) [Example 29, cis-5-((5-(3-((4-cyclopropylpyridazin-3-yl)oxy)cyclopentyl)-1H-pyrazol-3-yl)amino)-4-fluoro-2,3-dihydrobenzo[d]isothiazole 1,1-dioxide]"
2080,> 10000,"O=c1c(-c2ccccc2)ccnn1[C@H]1CC[C@@H](c2cc(Nc3ccc4c(c3F)CNS4(=O)=O)n[nH]2)C1 (relative stereo) [Example 30, cis-2-(3-(3-((4-fluoro-1,1-dioxido-2,3-dihydrobenzo[d]isothiazol-5-yl)amino)-1H-pyrazol-5-yl)cyclopentyl)-4-phenylpyridazin-3 (2H)-one]"
7.5,703,"CC(C)c1cnn([C@H]2CC[C@@H](c3cc(Nc4ccc5c(c4F)CNS5(=O)=O)n[nH]3)C2)c(=O)c1 (relative stereo) [Example 33, cis-2-(3-(3-((4-fluoro-1,1-dioxido-2,3-dihydrobenzo[d]isothiazol-5-yl)amino)-1H-pyrazol-5-yl)cyclopentyl)-5-isopropylpyridazin-3 (2H)-one]"
2.6,35,"O=S1(=O)NCc2c1ccc(Nc1cc([C@H]3CC[C@@H](Oc4nnccc4C4CCC4)C3)[nH]n1)c2F (relative stereo) [Example 35, cis-5-((5-(3-((4-cyclobutylpyridazin-3-yl)oxy)cyclopentyl)-1H-pyrazol-3-yl)amino)-4-fluoro-2,3-dihydrobenzo[d]isothiazole 1,1-dioxide]"
55,2330,"O=S1(=O)NCc2c1ccc(Nc1cc([C@H]3CC[C@@H](Oc4cccnc4)C3)[nH]n1)c2F (relative stereo) [Example 39, cis-4-fluoro-5-((5-(3-(pyridin-3-yloxy)cyclopentyl)-1H-pyrazol-3-yl)amino)-2,3-dihydrobenzo[d]isothiazole 1,1-dioxide]"
19,552,"Cc1ncccc1O[C@@H]1CC[C@H](c2cc(Nc3ccc4c(c3F)CNS4(=O)=O)n[nH]2)C1 (relative stereo) [Example 40, cis-4-fluoro-5-((5-(3-((2-methylpyridin-3-yl)oxy)cyclopentyl)-1H-pyrazol-3-yl)amino)-2,3-dihydrobenzo[d]isothiazole 1,1-dioxide]"
1400,8340,"CC(C)c1cncc(O[C@@H]2CC[C@H](c3cc(Nc4ccc5c(c4F)CNS5(=O)=O)n[nH]3)C2)c1 (relative stereo) [Example 44, cis-4-fluoro-5-((5-(3-((5-isopropylpyridin-3-yl)oxy)cyclopentyl)-1H-pyrazol-3-yl)amino)-2,3-dihydrobenzo[d]isothiazole 1,1-dioxide]"
